The values that follow are results of earlier work, collected in patent US20060292216A1, “Enteric delivery of (-)-hydroxycitric acid” (priority 2003, published 2006).

Some results are limits rather than exact numbers.

The subject of data set [1] is human hepatoma cell line Hep G2.
For data set [2], the system named is experimental animals fed a high-sugar diet. Particulars: single large oral dose or two divided oral doses totaling one fourth of it.
The test system of data set [3] is test subjects. As to conditions: chronic administration; resting and exercising conditions.
Data set [4] relates to humans. As to conditions: conditions that elevate de novo lipogenesis.
The test system of data set [5] is middle-aged rats fed a 30% fat diet.

For the molecule `O=C(O)CC(O)(C(=O)O)C(O)C(=O)O` (single isomer, unassigned; (-)) [HCA, (−)-hydroxycitric acid], the “cholesterol biosynthesis, of the control value, by incorporation from 3H2O” value in data set [1] is reported as 27 % of the control value. In data set [1] (0.5 mM or higher, 2.5 h and 18 h incubations), the “incorporation of [1,5-14C]citrate into fatty acids and cholesterol” value is given as “strongly inhibited”. Moreover, the “reduction in food consumption” value in data set [2] is on record as at least 10%. Besides, the respiratory exchange ratio result in data set [3] is listed as “significantly lower”. Besides, the “fat synthesis and energy expenditure” value in data set [4] was “reduced fat synthesis and increased energy expenditure”.

Take `O=C([O-])CC(O)(C(=O)[O-])C(O)C(=O)[O-].[K+].[K+].[K+]` (stereo not drawn) [potassium HCA]: in data set [5], the “protein and fat as percentage of body weight” value is listed as “increased protein as a percentage of body weight while reducing fat as a percentage of body weight”.
